# Tests used:
# Assay type in all cases: in vivo
# [1] = tested on: Cyperus iria; test: Field test applied at 25 DAS in direct seeded rice (Table 13); conditions: 30 GM.A.I./HA, scale 0-10
# Description: (§1) Methyl 2-[[[[(4-methoxy-6-methyl-1,3,5-triazin-2-yl)amino]carbonyl]amino]sulfonyl]benzoate (Compound 1) and mixtures thereof with other compounds were applied as a spray (using a hand sprayer) to rice (either transplanted or direct seeded) in several rice growing areas in Southeast Asia and in the U.S. Tables 1-28 contain the results of these tests and clearly exemplify the utility of this invention. The details of each application are included in the appropriate table. [drawing 2]
# [2] = tested on: Sphenoclea zeylanica; test: Field test applied at 7 DAS in direct seeded rice (Table 11); conditions: scale 0-10
# Description: as §1
# [3] = tested on: Cyperus difformis; test: as above; conditions: scale 0-10
# Description: as §1
# [4] = tested on: WEED; test: Effects in combination with Bensulfuron Methyl and Thiobencarb or Pretilachlor on weed control (Table 25); conditions: rate 25 g ai/ha, scale 0 to 10, treated at 2.0 leaf stage, evaluated four weeks later
# Description: as §1
# [5] = tested on: rice; test: Effects in combination with Bensulfuron Methyl and Thiobencarb or Pretilachlor on rice growth (Table 23); conditions: rate 25 g ai/ha; var. Koshihikari, applied 7 days after transplanting, rated 21 days after application
# Description: as §1
# [6] = tested on: WEED; test: Effects in combination with Bensulfuron Methyl and Thiobencarb or Pretilachlor on weed control (Table 24); conditions: rate 25 g ai/ha, scale 0 to 10, treated at 1.0 leaf stage, evaluated four weeks later
# Description: as §1
# [7] = tested on: direct seeded rice; test: Field test applied 7 DAS in direct seeded rice in the Philippines, phytotoxicity (Table 14); conditions: 30 DAA
# Description: as §1
# [8] = tested on: Sphenoclea zeylanica; test: Field test with Bensulfuron methyl in direct seeded rice (Table 10); conditions: 10 = complete control
# Description: as §1
# [9] = tested on: Marsilea crenata; test: as above; conditions: 10 = complete control
# Description: as §1
# [10] = tested on: Cyperus iria; test: as above; conditions: 10 = complete control
# Description: as §1
# [11] = tested on: Cuperus difformis; test: Herbicidal efficacy with Bensulfuron methyl and 2,4-D in Thailand (Table 19); conditions: 13 days after treatment
# Description: as §1
# [12] = tested on: Sphenoclea zeylanica; test: as above; conditions: 13 days after treatment
# Description: as §1
# [13] = tested on: rice; test: as above; conditions: 13 days after treatment
# Description: as §1
# [14] = tested on: FIMBRISTYLIS MILIACEA; test: Herbicidal efficacy with Bensulfuron methyl and 2,4-D in Thailand (Table 20); conditions: 14 days after treatment
# Description: as §1
# [15] = tested on: Cuperus iria; test: as above; conditions: 14 days after treatment
# Description: as §1
# [16] = tested on: Sphenoclea zeylanica; test: as above; conditions: 14 days after treatment
# Description: as §1
# [17] = tested on: Ludwigia linifolia; test: as above; conditions: 14 days after treatment
# Description: as §1
# [18] = tested on: rice; test: as above; conditions: 14 days after treatment
# Description: as §1
smiles,measurement,setting,value
"COC(=O)c1ccccc1CS(=O)(=O)NC(=O)Nc1nc(OC)cc(OC)n1 [Bensulfuron methyl, methyl 2-[[[[[(4,6-dimethoxy-2-pyrimidinyl)amino]carbonyl]amino]sulfonyl]methyl]benzoate]",WEED CONTROL at 6 WAA CI,[1],10
same,WEED CONTROL at 6 WAA SZ,[2]; 10 GM.A.I./HA,10
same,WEED CONTROL at 6 WAA SZ,[2]; 15 GM.A.I./HA,10
same,WEED CONTROL at 6 WAA SZ,[2]; 20 GM.A.I./HA,10
same,WEED CONTROL at 6 WAA SZ,[2]; 30 GM.A.I./HA,10
same,WEED CONTROL at 6 WAA CD,[3]; 10 GM.A.I./HA,10
same,WEED CONTROL at 6 WAA CD,[3]; 15 GM.A.I./HA,10
same,WEED CONTROL at 6 WAA CD,[3]; 20 GM.A.I./HA,10
same,WEED CONTROL at 6 WAA CD,[3]; 30 GM.A.I./HA,10
same,WEED CONTROL RATINGS CD,[4]; Cyperus difformis,10
same,WEED CONTROL RATINGS CS,[4]; Cyperus serotinus,2
same,WEED CONTROL RATINGS EO,[4]; Echinochloa oryzicola,1
same,WEED CONTROL RATINGS BL,[4]; Lindernia pyxidaria,9
same,WEED CONTROL RATINGS MV,[4]; Monochoria vaginalis,9
same,WEED CONTROL RATINGS SP,[4]; Sagittaria pygmaea,8
same,WEED CONTROL RATINGS SJ,[4]; Scirpus juncoides,5
same,CROP TOLERANCE DW (Dry weight relative to untreated check),[5],79%
same,CROP TOLERANCE PH (Plant height relative to untreated check),[5],89%
same,CROP TOLERANCE VA (Visual crop injury),[5],2.5%
same,WEED CONTROL RATINGS CD,[6]; Cyperus difformis,1
same,WEED CONTROL RATINGS CS,[6]; Cyperus serotinus,6
same,WEED CONTROL RATINGS EO,[6]; Echinochloa oryzicola,1
same,WEED CONTROL RATINGS BL,[6]; Lindernia pyxidaria,10
same,WEED CONTROL RATINGS MV,[6]; Monochoria vaginalis,10
same,WEED CONTROL RATINGS SP,[6]; Sagittaria pygmaea,8.5
same,WEED CONTROL RATINGS SJ,[6]; Scirpus juncoides,5
same,PHYTO (1-9),[7]; 8.25 G AI/HA,1.3
same,PHYTO (1-9),[7]; 12.0 G AI/HA,1
same,PHYTO (1-9),[7]; 16.50 G AI/HA,1.7
same,WEEDS CONTROL at 4 WAA SZ,[8]; 10 GAI/HA,0
same,WEEDS CONTROL at 4 WAA SZ,[8]; 20 GAI/HA,6
same,WEEDS CONTROL at 4 WAA MC,[9]; 10 GAI/HA,0
same,WEEDS CONTROL at 4 WAA MC,[9]; 20 GAI/HA,3.33
same,WEEDS CONTROL at 4 WAA CI,[10]; 10 GAI/HA,2
same,WEEDS CONTROL at 4 WAA CI,[10]; 20 GAI/HA,8
same,% CONTROL OR INJURY CD,[11]; 10 GAI/HA,100%
same,% CONTROL OR INJURY CD,[11]; 15 GAI/HA,100%
same,% CONTROL OR INJURY CD,[11]; 20 GAI/HA,100%
same,% CONTROL OR INJURY SZ,[12]; 10 GAI/HA,88%
same,% CONTROL OR INJURY SZ,[12]; 15 GAI/HA,100%
same,% CONTROL OR INJURY SZ,[12]; 20 GAI/HA,100%
same,% CONTROL OR INJURY RICE,[13]; 10 GAI/HA,0%
same,% CONTROL OR INJURY RICE,[13]; 15 GAI/HA,0%
same,% CONTROL OR INJURY RICE,[13]; 20 GAI/HA,0%
same,% CONTROL OR INJURY FM,[14]; 10 GAI/HA,80%
same,% CONTROL OR INJURY FM,[14]; 15 GAI/HA,100%
same,% CONTROL OR INJURY FM,[14]; 20 GAI/HA,100%
same,% CONTROL OR INJURY CI,[15]; 10 GAI/HA,77%
same,% CONTROL OR INJURY CI,[15]; 15 GAI/HA,90%
same,% CONTROL OR INJURY CI,[15]; 20 GAI/HA,95%
same,% CONTROL OR INJURY SZ,[16]; 10 GAI/HA,23%
same,% CONTROL OR INJURY SZ,[16]; 15 GAI/HA,60%
same,% CONTROL OR INJURY SZ,[16]; 20 GAI/HA,53%
same,% CONTROL OR INJURY LL,[17]; 10 GAI/HA,80%
same,% CONTROL OR INJURY LL,[17]; 15 GAI/HA,80%
same,% CONTROL OR INJURY LL,[17]; 20 GAI/HA,87%
same,% CONTROL OR INJURY RICE,[18]; 10 GAI/HA,0%
same,% CONTROL OR INJURY RICE,[18]; 15 GAI/HA,0%
same,% CONTROL OR INJURY RICE,[18]; 20 GAI/HA,0%

# Reference: patent EP0377642B1, “HERBICIDES FOR WEED CONTROL IN RICE” (E.I. DU PONT DE NEMOURS AND COMPANY, priority 1987, dated 1989)
